Source: patent US20250223301A1, “KINASE INHIBITORS, PREPARATION METHODS AND USES THEREOF” (InventisBio Co., Ltd., priority 2022, published 2025)
Read-outs that look alike come from different tables or passages of the source.

Key:
Jurkat cells = test: Jurkat IL-2 assay; type: cell-based; settings: Homo sapiens, anti-CD3/CD28 stimulation overnight, IL-2 level
Outline: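 Cells in RPMI-1640 with 10% FBS received compound solution (5 uM to 2.3 nM, 8 points, 3-fold dilution) for 60 minutes at 37° C. They were then stimulated overnight at 37° C. with anti-CD3/CD28 antibody. IL-2 in the supernatant was quantified by immunoassay kit and plotted against log compound concentration.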

[1] = Human microsomal clearance assay; type: in vitro ADME; settings: pH 7.4; for CLint scaled at 1 μM: human, liver microsomes; for half-life at 1 μM: human liver microsomes 0.5 mg/mL, 1 uM compound
Protocol: This study aimed to assess the metabolic stability of a compound in human liver microsomes using a microsomal clearance assay.
A mixture containing 100 mM potassium phosphate, pH 7.4, 0.5 mg/mL liver microsomes, 2 mM NADPH, and 1 μM compound were prepared and added to 96-well plate. The plates were then incubated at 37 ? for different time points (0, 5, 15, 30, 45 minutes) and the reaction was stopped with acetonitrile solution containing an internal standard. The samples were then analyzed by LC/MS/MS to determine how much of the compound remained at each time point. The elimination rate constant and half-life were calculated from the data, and the in vitro intrinsic clearance (CLint) was determined as follows: […]

PBMC = test: Human PBMC IL-2 assay; type: cell-based; settings: anti-CD3/CD28 stimulation overnight, IL-2 level
Outline: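 Healthy-donor frozen PBMC were thawed, rested 4 h at 37 °C and plated at ~200,000 cells/well. Cells were preincubated 60 min at 37 °C with compound solution (10 uM to 0.6 nM, 8 points, 4-fold, as added), then stimulated overnight with anti-CD3/CD28. Supernatant IL-2 was quantified by immunoassay kit and plotted against log compound concentration.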

[2] = test system: whole blood from male C57BL6 mice; test: Mouse whole blood IFN-gamma assay; type: cell-based; settings: anti-mouse CD3/CD28 0.6 ug/mL, 20 hours
Protocol: The whole blood from male C57BL6 mice (6-8 weeks old, Beijing Vital River Laboratory Animal Technology Co., Ltd.) was collected, pooled and dispensed at 200 uL per well in a 96-well plate. The blood was treated with compounds for one hour at 37° C. in a humidified 5% CO2 incubator. The blood was then stimulated with anti-mouse CD3 and anti-mouse CD28 antibody (BioLegend Cat #100340, #102116) at a final concentration of 0.6 ug/mL for 20 hours at 37° C. in a humidified 5% CO2 incubator. The blood was spun down, IFN-gamma in the supernatants was measured using ELISA kit (Excellbio Cat #EM002-96, #EM007-96) according the manufacture's instruction.

[3] = test system: CT26 murine colorectal adenocarcinoma cells; test: In vivo efficacy in CT26 syngeneic mouse tumor model; settings: CT26, BALB/c mice; 3 mg/kg PO QD
Protocol: Murine colorectal adenocarcinoma cells CT26 (purchased from ATCC) were cultured in RPMI 1640 medium with 10% FBS. For tumor implantation, 6-8 weeks old BALB/c female mice (Beijing Vital River Laboratory Animal Technology Co., Ltd.) were given a subcutaneous injection of CT26 cell (1×10^7 cells/mL) in 0.1 mL suspension into the right flank. Once tumors grew to a volume of 50-100 mm3, mice were randomized into different groups and treatment was initiated. Mice were treated orally once per day (PO, QD) with DGK inhibitors (3 mg/kg) or vehicle control. Anti-PD-1 antibody (BioXcell, Cat #BE0273), anti-CTLA4 antibody (BioXcell, Cat #BE0164) were diluted with PBS for dosing at 10 mg/kg or 5 mg/kg, respectively. Antibody was administrated via intraperitoneal injection, twice per week. Tumor volume and body weight of mice were recorded twice per week.
All animals were housed in a room maintained at 23:3° C., 65%-75% humidity, with a controlled 12 h light-dark cycle for 5-7 days before experiments. Water and commercial laboratory complete food for mice were provided in the cage.

DGKz = DGKz (Homo sapiens (Human), UniProt Q13574); test: DGK ADP-Glo kinase assay (DGKz); type: biochemical; settings: 5 nM DGKz, 15 uM ATP
Chain of DGKz (Q13574 whole entry): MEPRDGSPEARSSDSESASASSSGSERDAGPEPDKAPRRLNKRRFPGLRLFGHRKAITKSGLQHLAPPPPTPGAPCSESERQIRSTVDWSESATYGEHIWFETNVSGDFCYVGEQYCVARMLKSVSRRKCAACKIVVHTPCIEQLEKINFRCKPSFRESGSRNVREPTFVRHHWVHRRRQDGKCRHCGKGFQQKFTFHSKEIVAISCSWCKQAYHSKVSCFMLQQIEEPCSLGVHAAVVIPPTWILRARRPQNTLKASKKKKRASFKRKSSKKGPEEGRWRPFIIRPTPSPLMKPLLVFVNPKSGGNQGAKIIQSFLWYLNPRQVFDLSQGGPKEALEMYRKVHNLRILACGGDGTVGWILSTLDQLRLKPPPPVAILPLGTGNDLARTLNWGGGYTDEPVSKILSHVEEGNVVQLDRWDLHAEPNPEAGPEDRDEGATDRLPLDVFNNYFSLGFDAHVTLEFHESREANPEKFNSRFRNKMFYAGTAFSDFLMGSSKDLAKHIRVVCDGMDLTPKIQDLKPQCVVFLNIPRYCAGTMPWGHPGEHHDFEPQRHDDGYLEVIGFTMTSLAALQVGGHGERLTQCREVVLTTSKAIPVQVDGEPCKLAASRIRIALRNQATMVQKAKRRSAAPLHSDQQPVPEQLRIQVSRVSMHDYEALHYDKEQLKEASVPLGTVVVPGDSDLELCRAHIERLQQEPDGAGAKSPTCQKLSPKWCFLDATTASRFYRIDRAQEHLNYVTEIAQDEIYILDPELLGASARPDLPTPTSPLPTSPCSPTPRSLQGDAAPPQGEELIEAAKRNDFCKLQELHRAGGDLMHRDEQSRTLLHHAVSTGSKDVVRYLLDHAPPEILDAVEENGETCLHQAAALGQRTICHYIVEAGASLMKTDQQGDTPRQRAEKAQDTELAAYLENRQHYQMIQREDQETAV
Protocol: Luminescence was recorded using an Tecan SPARK microplate reader.

DGKa [4] = molecular target: T1, DGKa (Homo sapiens (Human), UniProt P23743);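 also: biochemical DGK kinase assay, ADP-Glo luminescence from ADP made by phosphorylating 1,2-dioleoyl-sn-glycerol, 20 min compound preincubation then 40 min reaction at 25 °C, 1% DMSO control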
T1 sequence (P23743 whole entry): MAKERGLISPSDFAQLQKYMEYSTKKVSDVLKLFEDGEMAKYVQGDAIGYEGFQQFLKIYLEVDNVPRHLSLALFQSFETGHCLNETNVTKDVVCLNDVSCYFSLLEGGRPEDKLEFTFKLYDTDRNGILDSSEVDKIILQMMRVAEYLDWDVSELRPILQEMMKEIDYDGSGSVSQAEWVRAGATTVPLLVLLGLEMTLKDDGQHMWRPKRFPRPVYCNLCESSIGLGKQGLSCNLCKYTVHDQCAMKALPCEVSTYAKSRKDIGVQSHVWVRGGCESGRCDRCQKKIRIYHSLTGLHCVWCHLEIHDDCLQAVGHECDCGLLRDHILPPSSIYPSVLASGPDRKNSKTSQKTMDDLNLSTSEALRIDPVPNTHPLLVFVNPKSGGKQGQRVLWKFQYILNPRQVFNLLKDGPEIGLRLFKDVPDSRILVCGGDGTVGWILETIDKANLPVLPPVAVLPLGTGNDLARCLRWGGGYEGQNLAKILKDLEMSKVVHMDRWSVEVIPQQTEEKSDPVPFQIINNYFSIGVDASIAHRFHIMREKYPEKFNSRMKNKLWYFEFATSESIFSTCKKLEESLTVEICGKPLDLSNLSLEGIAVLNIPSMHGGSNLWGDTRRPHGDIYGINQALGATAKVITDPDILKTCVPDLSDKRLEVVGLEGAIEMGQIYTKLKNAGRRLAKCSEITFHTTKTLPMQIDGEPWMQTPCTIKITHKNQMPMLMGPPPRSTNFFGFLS
Protocol: (§1) The DGKa and DGKz kinase assays were performed using Promega ADP-Glo kit (Promega, Cat #V9102). One microliter test compound was added to a 384-well plate. Reactions were performed in a 5 uL volume by adding 2 uL mixture of DGK enzyme and ATP in assay buffer (50 mM MOPS pH 7.5, 100 mM NaCl, 10 mM MgCl2, 1 mM CaCl2, 0.0025% BSA, and 1 mM DTT). […] The enzyme solution was incubated with test compound at 25 ? for 20 min. […] The reaction was initiated by the addition of 2 uL of substrate solution (7 uM 1.2-dioleoyl-sn-glycerol, 5 mM octyl-b-D-glucopyranoside) in the 5 uL assay volume. The resulting mixture was incubated at 25° C. for 40 minutes. Next, 5 uL of ADP-Glo-reagent was added to the plate and incubated for 40 minutes. Then 10 uL of kinase detection reagent was added and incubated for 30 minutes. Luminescence was recorded using an Tecan SPARK microplate reader. 1% DMSO vehicle was used as control and no enzyme well was used as blank well.

DGKa [5] = molecular target: T1, DGKa; test: biochemical
Protocol: as §1

[6] = test system: MC-38 murine colon adenocarcinoma cells; test: In vivo efficacy in MC38 syngeneic mouse tumor model; settings: MC38, C57BL/6 mice; compound 67 0.6 mg/kg PO QD in combination with anti-PD-1 2 mg/kg i.p. twice per week
Protocol: Murine colon adenocarcinoma cells MC-38 were obtained from American Type Culture Collection (ATCC) and cultured in RPMI 1640 media containing 10% fetal bovine serum (FBS) at 37° C. in a humidified 5% CO2 incubator. Female C57BL/6 mice (20 2 g, 6-8 weeks old) were purchased from SPF Biotechnology Co., Ltd. (Beijing, China). MC-38 cells were collected from flask and suspended in PBS. Suspension of 1×10^6 cells in 0.1 mL culture media without FBS was injected subcutaneously into animal armpits. Once the tumor reached 100-150 mm^3, the mice were randomized into different groups and treatment was initiated. Mice were treated orally once per day (PO, QD) with compound 67 (0.6 mg/kg) or vehicle control. Anti-PD-1 antibody (BioXcell, Cat #BE0273) was diluted with PBS for dosing at 2 mg/kg and was administrated via intraperitoneal injection, twice per week. Tumor volume and body weight of mice were recorded twice per week.
All animals were housed in a room maintained at 23±3° C., 65%-75% humidity, with a controlled 12 h light-dark cycle for 5-7 days before experiments. Water and commercial laboratory complete food for mice were provided in the cage.
Tumor volume was calculated by measuring two perpendicular diameters using the following formula: (L×W^2)/2, in which L and W refer to the length and width tumor diameter, respectively.

EC50 (Jurkat cells) [nM]	CLint scaled at 1 μM [1] [mL/min/kg]	half-life at 1 μM [1] [min]	EC50 [2] [nM]	IC50 (DGKz) [nM]	IC50 (DGKa [4]) [nM]	Structure (SMILES)	EC50 (PBMC) [nM]	also measured
32	4.1	428				CC[C@@H]1CN2c3c(c(=O)n(C)c4ccc(C#N)nc34)OC[C@@H]2CN1[C@@H](CC)c1ccc(S(F)(F)(F)(F)F)cc1 (stereo in doubt) [Compound 151]	82	
39			312			CC[C@@H]1CN2c3c(c(=O)n(C)c4ccc(C#N)nc34)OC[C@@H]2CN1[C@@H](CC)c1ccc(F)c(Cl)c1 (stereo in doubt) [Compound 197]	78	
70	18.3	95	679			C[C@@H]1CN2c3c(c(=O)n(C)c4ccc(C#N)nc34)OC[C@@H]2CN1[C@@H](C)c1ccc(C(F)(F)F)cc1 (stereo in doubt) [Compound 223]	47	
30	1.1	1540	265			CC[C@@H]1CN2c3c(c(=O)n(C)c4ccc(C#N)nc34)OC[C@@H]2CN1[C@@H](CC)c1ccc(C(F)(F)F)c(Cl)c1 (stereo in doubt) [Compound 246]	23	
32	12.3	142	144			CC[C@@H]1CN2c3c(c(=O)n(C)c4ccc(C#N)nc34)OC[C@@H]2CN1[C@@H](CC)c1ccc(Cl)c(Cl)c1 (stereo in doubt) [Compound 250]	16	Tumor growth [3]: inhibit tumor growth
51	8.6	203				[2H]C([2H])([2H])n1c(=O)c2c(c3nc(C#N)ccc31)N1C[C@@H](CC)N([C@@H](CC)c3ccc(C(F)(F)F)cc3)C[C@H]1CO2 (stereo in doubt) [Compound 251]	50	
12	12.4	141	281			CC[C@@H](c1ccc(Cl)c(Cl)c1)N1C[C@H]2COc3c(c4nc(C#N)ccc4n(C)c3=O)N2C[C@H]1C (stereo in doubt) [Compound 322]	25	
				126	427	Cn1c(=O)nc(N2CCC(Oc3ccc(OC(F)(F)F)cc3)CC2)c2nc(C#N)ccc21 [Compound 5]	728	
				775	212	Cn1c(=O)c(C(N)=O)c(N2CCC3(CCN(c4ccc(OC(F)(F)F)cc4)C3)CC2)c2nc(C#N)ccc21 [Compound 6]	1800	
	7.7	225		50		CC[C@H]1CN([C@@H](CC)c2ccc(S(F)(F)(F)(F)F)cc2)[C@H](CC)CN1c1nc(=O)n(C)c2ccc(C#N)nc12 [Compound 28]		IC50 (DGKa [5]): 12 nM
	5.1	342		24	20	Cn1c(=O)nc(N2CCC3(CC2)CC(c2ccc(OC(F)(F)F)cc2)=NO3)c2nc(C#N)ccc21 [Compound 31]		
67			335	42	16	CC[C@H]1CN([C@@H](CC)c2ccc(C(F)(F)F)cc2)[C@H](CC)CN1c1nc2nncn2c2ccc(C#N)nc12 [Compound 34]	44	
	2.7	654				Cn1c(=O)nc(N2CCC3(CC2)COC(c2ccc(OC(F)(F)F)cc2)=N3)c2nc(C#N)ccc21 [Compound 36]		
49	7.5	233	102	16		CC[C@@H]1CN2c3c(c(=O)n(C)c4ccc(C#N)nc34)OC[C@@H]2CN1[C@@H](CC)c1ccc(C(F)(F)F)cc1 [Compound 67]	40	Tumor inhibition activity [6]: significantly better tumor inhibition activity than either of the single agents; IC50 (DGKa [5]): 4 nM
				41	18	CCC(c1ccc(C23CC(C2)C3)nc1)N1C[C@H](CC)N(c2nc3nncn3c3ccc(C#N)nc23)C[C@H]1CC (some centres unmarked) [Compound 104]		
				136	9	CC[C@@H]1CN2c3c(c(=O)n(C)c4ccc(C#N)nc34)OC[C@H]2CN1[C@@H](CC)c1ccc(C(F)(F)F)cc1 [Compound 107]		
				242	26	CC[C@@H]1CN2c3c(c(=O)n(C)c4ccc(C#N)nc34)OC[C@H]2CN1[C@H](CC)c1ccc(C(F)(F)F)cc1 [Compound 108]		
				71	6	CC[C@H]1CN([C@@H](CC)c2ccc(C(F)(F)F)cc2)[C@H](CC)CN1c1nc2nccn2c2ccc(C#N)nc12 [Compound 109]		
				117	6	CC[C@H]1CN([C@H](CC)c2ccc(C(F)(F)F)cc2)[C@H](CC)CN1c1nc2nccn2c2ccc(C#N)nc12 [Compound 110]		
				161	44	CC[C@H]1CN([C@H]2CCCCc3cc(C(F)(F)F)ccc32)[C@H](CC)CN1c1nc2nncn2c2ccc(C#N)nc12 [Compound 113]		
				4	30	CC[C@H]1CN([C@@H]2CCCCc3cc(C(F)(F)F)ccc32)[C@H](CC)CN1c1nc2nncn2c2ccc(C#N)nc12 [Compound 114]		
				21	3	CC[C@H]1CN([C@@H](CC)c2nc(C3CC3)no2)[C@H](CC)CN1c1nc2nncn2c2ccc(C#N)nc12 [Compound 119]		
				352	10	CC[C@H]1CN([C@H](CC)c2nc(C3CC3)no2)[C@H](CC)CN1c1nc2nncn2c2ccc(C#N)nc12 [Compound 120]		
130	6.9	254				CC[C@@H]1CN2c3c(c(=O)n(C)c4ccc(C#N)nc34)CC[C@@H]2CN1[C@H](CC)c1ccc(C(F)(F)F)cc1 [Compound 332]	64	
26			241			CC[C@@H]1CN2c3c(c4nncn4c4ccc(C#N)nc34)OC[C@@H]2CN1[C@@H](CC)c1ccc(C(F)(F)F)cc1 [Compound 334]	31	
